# Reference: article PMC5654968 (NPJ Systems Biology and Applications, 2017)
# Where two headings read alike, the source gives them in different places.
# Assay type: in vivo, rat
# Procedure: Distilled water and saline were administered as vehicle to rats in each control group. […] Plasma cytokine levels were measured by ELISA or multiplex immunoassay; common metabolites and lipid mediators were analyzed by GC-MS/MS and LC-MS/MS, respectively.
# Pathway maps of lipid mediators were created by using CellDesigner 4.4 software (http://www.celldesigner.org). We evaluated the effects of the treatments on specific lipid mediators and categorized them according to COX, CYP and LOX pathways by Fisher’s exact test. The proinflammatory and anti-inflammatory indices were analyzed as described by Tam et al. with modification.[22]
# [1] = first value of an incomplete line, time (2h or 4h) not assignable
# [2] = PM/P (polyI:C+maoto vs polyI:C), 2h
# [3] = PM/P (polyI:C+maoto vs polyI:C), 4h
smiles,measurement,setting,value
CCCCC[C@H](O)/C=C/[C@@H]1[C@@H](C/C=C\CCCCCC(=O)O)[C@@H](O)C[C@H]1O [1a1b-dihomo-PGF2α],log2FC of plasma level,,1.56
same,log2FC of plasma level,[1],0.80
CC/C=C\C/C=C\C/C=C\C/C=C\C/C=C\C=C\C(O)CCC(=O)O (stereo not drawn) [4-HDoHE],log2FC of plasma level,"M/C (maoto vs control), 2h",0.12
same,log2FC of plasma level,"M/C (maoto vs control), 4h",-0.59
same,log2FC of plasma level,"P/C (polyI:C vs control), 2h",-0.04
same,log2FC of plasma level,"P/C (polyI:C vs control), 4h",0.33
same,log2FC of plasma level,[2],0.03
same,log2FC of plasma level,[3],-0.79
"CCCCC/C=C\C/C=C\C/C=C\CC(O)C1CCCC(=O)O1 (stereo not drawn) [5,6-DHET-lactone]",log2FC of plasma level,,-0.87
same,log2FC of plasma level,[1],0.53
"CCCCC/C=C\C/C=C\C/C=C\CC(O)C(O)CCCC(=O)O (stereo not drawn) [5,6-DHET]",log2FC of plasma level,"M/C (maoto vs control), 2h",0.42
same,log2FC of plasma level,"M/C (maoto vs control), 4h",-0.54
same,log2FC of plasma level,"P/C (polyI:C vs control), 2h",-0.14
same,log2FC of plasma level,"P/C (polyI:C vs control), 4h",0.11
same,log2FC of plasma level,[2],0.23
same,log2FC of plasma level,[3],-0.71
"CC/C=C\C/C=C\C/C=C\C/C=C\CC(O)C(O)CCCC(=O)O (stereo not drawn) [5,6-DiHETE]",log2FC of plasma level,"M/C (maoto vs control), 2h",-0.03
same,log2FC of plasma level,"M/C (maoto vs control), 4h",-0.23
same,log2FC of plasma level,"P/C (polyI:C vs control), 2h",-0.19
same,log2FC of plasma level,"P/C (polyI:C vs control), 4h",0.03
same,log2FC of plasma level,[2],-0.44
same,log2FC of plasma level,[3],-0.44
"CCCCC/C=C\C/C=C\C/C=C\CC1OC1CCCC(=O)O (stereo not drawn) [5,6-EET]",log2FC of plasma level,"M/C (maoto vs control), 2h",-0.22
same,log2FC of plasma level,"M/C (maoto vs control), 4h",-0.49
same,log2FC of plasma level,"P/C (polyI:C vs control), 2h",-0.26
same,log2FC of plasma level,"P/C (polyI:C vs control), 4h",0.11
same,log2FC of plasma level,[2],0.12
same,log2FC of plasma level,[3],-0.56
CC/C=C\C/C=C\C/C=C\C/C=C\C=C\C(O)CCCC(=O)O (stereo not drawn) [5-HEPE],log2FC of plasma level,"M/C (maoto vs control), 2h",0.39
same,log2FC of plasma level,"M/C (maoto vs control), 4h",-0.35
same,log2FC of plasma level,"P/C (polyI:C vs control), 2h",0.16
same,log2FC of plasma level,"P/C (polyI:C vs control), 4h",0.04
same,log2FC of plasma level,[2],0.10
same,log2FC of plasma level,[3],-0.47
CCCCC/C=C\C/C=C\C/C=C\C=C\[C@@H](O)CCCC(=O)O [5-HETE],log2FC of plasma level,"M/C (maoto vs control), 2h",-0.06
same,log2FC of plasma level,"M/C (maoto vs control), 4h",-0.47
same,log2FC of plasma level,"P/C (polyI:C vs control), 2h",-0.07
same,log2FC of plasma level,"P/C (polyI:C vs control), 4h",0.39
same,log2FC of plasma level,[2],0.01
same,log2FC of plasma level,[3],-0.73
CCCCCC=CCC=CCC=CC=CC(=O)CCCC(=O)O [5-KETE],log2FC of plasma level,"M/C (maoto vs control), 2h",-0.29
same,log2FC of plasma level,"M/C (maoto vs control), 4h",-0.45
same,log2FC of plasma level,"P/C (polyI:C vs control), 2h",-0.18
same,log2FC of plasma level,"P/C (polyI:C vs control), 4h",0.36
same,log2FC of plasma level,[2],-0.02
same,log2FC of plasma level,[3],-0.67
CCCCC/C=C\C[C@@H]1[C@H](/C=C/C(O)CCCC(=O)O)[C@@H](O)C[C@H]1O (stereo partly drawn) [5-iPF2α-VI],log2FC of plasma level,"M/C (maoto vs control), 2h",-0.16
same,log2FC of plasma level,"M/C (maoto vs control), 4h",-0.25
same,log2FC of plasma level,"P/C (polyI:C vs control), 2h",-0.73
same,log2FC of plasma level,"P/C (polyI:C vs control), 4h",0.38
same,log2FC of plasma level,[2],0.75
same,log2FC of plasma level,[3],-0.41
"CCCCCC(=O)CCC1C(O)CC(O)C1CC(=O)CCCCC(=O)O (stereo not drawn) [6,15-diketo-13,14-dihydro-PGF1α]",log2FC of plasma level,,-0.52
same,log2FC of plasma level,[1],1.63
CCCCC[C@H](O)/C=C/[C@@H]1[C@@H](CC(=O)CCCCC(=O)O)[C@@H](O)C[C@H]1O [6-keto-PGF1α],log2FC of plasma level,"M/C (maoto vs control), 2h",0.16
same,log2FC of plasma level,"M/C (maoto vs control), 4h",0.08
same,log2FC of plasma level,"P/C (polyI:C vs control), 2h",1.21
same,log2FC of plasma level,"P/C (polyI:C vs control), 4h",0.67
same,log2FC of plasma level,[2],-0.35
same,log2FC of plasma level,[3],0.01
CC/C=C\C/C=C\C/C=C\C/C=C\C=C\C(O)C/C=C\CCC(=O)O (stereo not drawn) [7-HDoHE],log2FC of plasma level,"M/C (maoto vs control), 2h",0.11
same,log2FC of plasma level,"M/C (maoto vs control), 4h",-0.26
same,log2FC of plasma level,"P/C (polyI:C vs control), 2h",0.02
same,log2FC of plasma level,"P/C (polyI:C vs control), 4h",0.23
same,log2FC of plasma level,[2],-0.17
same,log2FC of plasma level,[3],-0.39
"CCCCC/C=C\C/C=C\CC(O)C(O)C/C=C\CCCC(=O)O (stereo not drawn) [8,9-DHET]",log2FC of plasma level,"M/C (maoto vs control), 2h",0.82
same,log2FC of plasma level,"M/C (maoto vs control), 4h",-0.02
same,log2FC of plasma level,"P/C (polyI:C vs control), 2h",0.07
same,log2FC of plasma level,"P/C (polyI:C vs control), 4h",0.42
same,log2FC of plasma level,[2],0.16
same,log2FC of plasma level,[3],-0.59
"CCCCC/C=C\C/C=C\CC1OC1C/C=C\CCCC(=O)O (stereo not drawn) [8,9-EET]",log2FC of plasma level,"M/C (maoto vs control), 2h",-0.23
same,log2FC of plasma level,"M/C (maoto vs control), 4h",-0.33
same,log2FC of plasma level,"P/C (polyI:C vs control), 2h",-0.32
same,log2FC of plasma level,"P/C (polyI:C vs control), 4h",0.06
same,log2FC of plasma level,[2],0.27
same,log2FC of plasma level,[3],-0.66
CC/C=C\C/C=C\C/C=C\C/C=C\CC(O)/C=C/C=C\CCC(=O)O (stereo not drawn) [8-HDoHE],log2FC of plasma level,"M/C (maoto vs control), 2h",0.09
same,log2FC of plasma level,"M/C (maoto vs control), 4h",-0.20
same,log2FC of plasma level,"P/C (polyI:C vs control), 2h",-0.07
same,log2FC of plasma level,"P/C (polyI:C vs control), 4h",0.23
same,log2FC of plasma level,[2],-0.15
same,log2FC of plasma level,[3],-0.44
